Reference: US12180146B2, “Antihypertensive polyol compound and derivative thereof” (TAO PHARMACEUTICAL (SUZHOU) CO., LTD, priority 2020, dated 2024)

Legend:
[1] = tested on: spontaneously hypertensive rats (SHR); assay: Antihypertensive activity test: blood pressure and heart rate of spontaneously hypertensive rats (SHR); assay type: in vivo, rat; settings: 200 mg/kg
How it was run: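 Spontaneously hypertensive rats received compound at 200 mg/kg. SBP and heart rate were measured before and after dosing. A drop in SBP of ≥20 mmHg from baseline counted as effective, and heart-rate changes were tested by paired t-test (P<0.05).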

[2] = tested on: hypoxic pulmonary hypertension model rats; assay: Hypoxic pulmonary hypertension model rats, oral (gavage) treatment for 28 days; assay type: in vivo, SD rats; settings: hypoxic PAH rats, po
[3] = after administration (6 h M ± SD), n = 8
[4] = before administration, M ± SD, n = 8

CCc1cccc(C(O)CO)c1 (stereo not shown) [Compound 1, 1-(3-ethylphenyl)-1,2-ethylene glycol]
time after administration of maximum antihypertensive effects [1]: 3 h | SHR heart rate, time after administration 0 h ([1]; 0 h, N = 8): 356 ± 46.4 beat/min | Heart rate Difference before and after administration, 1 h ([1]; 1 h): −9 beat/min | SBP Difference before and after administration, 1 h ([1]; 1 h): 16 mmHg | SHR heart rate, time after administration 1 h ([1]; 1 h, N = 8): 348 ± 39.3 beat/min | SHR blood pressure (SBP), time after administration 1 h ([1]; 1 h, n = 8): 176 ± 9.55 mmHg | Heart rate Difference before and after administration, 2 h ([1]; 2 h): 23 beat/min | SBP Difference before and after administration, 2 h ([1]; 2 h): 20 mmHg | SHR heart rate, time after administration 2 h ([1]; 2 h, N = 8): 380 ± 34.1 beat/min | SHR blood pressure (SBP), time after administration 2 h ([1]; 2 h, n = 8): 172 ± 7.36 mmHg | Heart rate Difference before and after administration, 3 h ([1]; 3 h): 28 beat/min | SBP Difference before and after administration, 3 h ([1]; 3 h): 23 mmHg | SHR heart rate, time after administration 3 h ([1]; 3 h, N = 8): 385 ± 31.5 beat/min | SHR blood pressure (SBP), time after administration 3 h ([1]; 3 h, n = 8): 169 ± 4.07 mmHg | Heart rate Difference before and after administration, 4 h ([1]; 4 h): 28 beat/min | SBP Difference before and after administration, 4 h ([1]; 4 h): 19 mmHg | SHR heart rate, time after administration 4 h ([1]; 4 h, N = 8): 385 ± 30.4 beat/min | SHR blood pressure (SBP), time after administration 4 h ([1]; 4 h, n = 8): 173 ± 7.15 mmHg | Heart rate Difference before and after administration, 5 h ([1]; 5 h): 16 beat/min | SBP Difference before and after administration, 5 h ([1]; 5 h): 17 mmHg | SHR heart rate, time after administration 5 h ([1]; 5 h, N = 8): 372 ± 28.5 beat/min | SHR blood pressure (SBP), time after administration 5 h ([1]; 5 h, n = 8): 175 ± 5.61 mmHg | Heart rate Difference before and after administration, 6 h ([1]; 6 h): 17 beat/min | SBP Difference before and after administration, 6 h ([1]; 6 h): 11 mmHg | SHR heart rate, time after administration 6 h ([1]; 6 h, N = 8): 373 ± 31.3 beat/min | SHR blood pressure (SBP), time after administration 6 h ([1]; 6 h, n = 8): 180 ± 6.66 mmHg | Blood pressure (SBP, mmHg) After administration [1, 3]: 174 ± 4.01 mmHg | Heart rate (beat/min) After administration [1, 3]: 368 ± 25.5 beat/min | Heart rate Difference (beat/min) ([1]; after administration minus baseline (6 h)): 12 beat/min | Blood pressure Difference mmHg ([1]; baseline minus after administration (6 h)): 18 mmHg | Blood pressure (SBP, mmHg) Baseline [1, 4]: 192 ± 7.98 mmHg | Heart rate (beat/min) Baseline [1, 4]: 356 ± 46.4 beat/min | RVSP ([2]; 10 mg/kg): 70.28 ± 4.64 mmHg | mPAP ([2]; 10 mg/kg): 25.26 ± 3.46 mmHg | RVHI ([2]; 10 mg/kg, RV/(LV+S)): 0.467 ± 0.030 | 2 × MT/ED ([2]; 10 mg/kg, medium thickness ratio of small pulmonary arteries): 0.361 ± 0.020 | 2 × MT/ED ([2]; 25 mg/kg): 0.323 ± 0.022 | RVHI ([2]; 25 mg/kg): 0.472 ± 0.026 | RVSP ([2]; 25 mg/kg): 71.34 ± 2.12 mmHg | mPAP ([2]; 25 mg/kg): 22.36 ± 1.78 mmHg | 2 × MT/ED ([2]; 50 mg/kg): 0.304 ± 0.021 | RVHI ([2]; 50 mg/kg): 0.456 ± 0.019 | RVSP ([2]; 50 mg/kg): 67.46 ± 4.28 mmHg | mPAP ([2]; 50 mg/kg): 21.66 ± 3.28 mmHg | 2 × MT/ED ([2]; 100 mg/kg): 0.266 ± 0.014 | RVHI ([2]; 100 mg/kg): 0.301 ± 0.017 | RVSP ([2]; 100 mg/kg): 59.12 ± 2.12 mmHg | mPAP ([2]; 100 mg/kg): 15.89 ± 1.12 mmHg | 2 × MT/ED ([2]; 200 mg/kg): 0.241 ± 0.011 | RVHI ([2]; 200 mg/kg): 0.254 ± 0.022 | RVSP ([2]; 200 mg/kg): 54.38 ± 2.98 mmHg | mPAP ([2]; 200 mg/kg): 15.21 ± 1.92 mmHg
